# Laboratory results: ChEMBL document CHEMBL4765414, “Rhodamine B-based fluorescent probes for molecular mechanism study of the anti-influenza activity of pentacyclic triterpenes” (Eur J Med Chem, 2020)
# Activity calls are given as the source filed them. The calls are words filed in the database; no cut-off is given here.
# Legend:
# [1] = Cytotoxicity against dog MDCK cells assessed as reduction in cell viability measured after 36 hrs by Celltiter-Glo luminescence assay; format: cell-based, Canis lupus familiaris
# Influenza A virus [2] = assay: Antiviral activity against Influenza A virus A/WSN/33(H1N1) infected in MDCK cells assessed as inhibition of viral replication measured after 36 hrs by CellTiter-Glo assay; format: functional, organism-based; conditions: A/WSN/1933(H1N1)
# [3] = Selectivity ratio of CC50 for MDCK cells to IC50 for Influenza A virus A/WSN/33(H1N1) infected in MDCK cells; format: toxicity, cell-based; conditions: dog, read-out: Ratio CC50/IC50
# MDCK = assay: Cytotoxicity against dog MDCK cells assessed as reduction in cell viability at 50 uM measured after 36 hrs by Celltiter-Glo luminescence assay; format: cell-based, Canis lupus familiaris
# Influenza A virus [4] = assay: Antiviral activity against Influenza A virus A/WSN/33(H1N1) infected in MDCK cells assessed as inhibition of viral replication at 100 uM measured after 36 hrs by CellTiter-Glo assay; format: functional, organism-based; conditions: A/WSN/1933(H1N1)
# Influenza A virus [5] = assay: Antiviral activity against Influenza A virus A/WSN/33(H1N1) infected in MDCK cells assessed as inhibition of virus-induced cytopathic effects at 50 uM after 36 hrs by microscopic analysis; format: functional, A/WSN/1933(H1N1); design: scale not given: the % may be the effect or the level left
# [6] = Binding affinity to recombinant influenza A virus A/WSN/33(H1N1) hemagglutin assessed as dissociation constant by surface plasmon resonance assay; design: species or system Influenza A virus (A/WSN/1933(H1N1))
# [7] = Binding affinity to recombinant influenza A virus A/WSN/33(H1N1) hemagglutin by surface plasmon resonance assay; design: species or system Influenza A virus (A/WSN/1933(H1N1))
# [8] = tested on: Influenza A virus (A/WSN/1933(H1N1)); assay: Binding affinity to recombinant influenza A virus A/WSN/33(H1N1) hemagglutin assessed as association constant by surface plasmon resonance assay
# Influenza A virus [9] = assay: Antiviral activity against Influenza A virus A/WSN/33(H1N1) infected in MDCK cells preincubated with cells for 12 hrs followed by viral infection; format: functional, organism-based; conditions: A/WSN/1933(H1N1)
# Influenza A virus [10] = assay: Antiviral activity against Influenza A virus A/WSN/33(H1N1) infected in MDCK cells assessed as inhibition of virus-induced cell death at 50 uM preincubated with virus for 30 mins followed by cell infection for 1 hr and measured after 36 hrs; format: functional, A/WSN/1933(H1N1); design: scale not given: the % may be the effect or the level left; conditions: time 2250 min, 37.5 h
# [11] = Drug uptake in dog MDCK cells assessed as increase in red fluorescence at 25 uM incubated for 1 hr by flow cytometry analysis; format: ADME, cell-based, Canis lupus familiaris
# Erythrocyte = assay: Inhibition of Influenza A virus A/WSN/33(H1N1) hemagglutinin assessed as inhibition of chicken erythrocytes hemagglutination upto 20 uM incubated for 30 mins; format: cell-based; conditions: Influenza A virus (A/WSN/1933(H1N1)), dose microM <=20, time 30.0 min
# [12] = Drug uptake in dog MDCK cells assessed as increase in red fluorescence at 25 uM incubated for 3 hrs by flow cytometry analysis; format: ADME, cell-based, Canis lupus familiaris
# Influenza A virus [13] = assay: Antiviral activity against Influenza A virus A/WSN/33(H1N1) infected in MDCK cells assessed as inhibition of virus-induced cell death at 50 uM cotreated with virus and cells for 1 hrs and measured after 36 hrs; format: functional, A/WSN/1933(H1N1); design: scale not given: the % may be the effect or the level left; conditions: time 37 hrs
# [14] = Stability of compound in dog MDCK cells after 36 hrs; format: ADME, cell-based, Canis lupus familiaris
# Influenza A virus [15] = assay: Antiviral activity against Influenza A virus A/WSN/33(H1N1) infected in MDCK cells assessed as reduction in antiviral activity preincubated with cells for 3 hrs followed by viral infection; format: functional, A/WSN/1933(H1N1); design: scale not given: the % may be the effect or the level left
# Influenza A virus [16] = assay: Antiviral activity against Influenza A virus A/WSN/33(H1N1) infected in MDCK cells preincubated with cells for 5 hrs followed by viral infection; format: functional, organism-based; conditions: A/WSN/1933(H1N1)
# Influenza A virus [17] = assay: Antiviral activity against Influenza A virus A/WSN/33(H1N1) infected in MDCK cells assessed as inhibition of virus-induced cell death at 50 uM preincubated with cells for 30 mins followed by viral infection for 1 hr and measured after 36 hrs; format: functional, A/WSN/1933(H1N1); design: scale not given: the % may be the effect or the level left; conditions: time 2250 min, 37.5 h
# [18] = Drug uptake in dog MDCK cells assessed as increase in red fluorescence at 25 uM incubated for 36 hrs by flow cytometry analysis; format: ADME, cell-based, Canis lupus familiaris
# [19] = Drug localization in cytoplasm of MDCK cells at 25 uM incubated for 12 hrs by confocal microscopy analysis; format: ADME, subcellular, Canis lupus familiaris; conditions: dog
# [20] = Drug localization in cell membrane of MDCK cells at 25 uM incubated for 1 to 3 hrs by DOI staining based confocal microscopy analysis; format: ADME, cell membranes, Canis lupus familiaris; conditions: dog, time 1-3 hrs
compound,measurement,setting,value
C=C(C)[C@@H]1CC[C@]2(C(=O)NCCN3C(=O)c4ccccc4C34c3ccc(N(CC)CC)cc3Oc3cc(N(CC)CC)ccc34)CC[C@]3(C)[C@H](CC[C@@H]4[C@@]5(C)CC[C@H](O)C(C)(C)[C@@H]5CC[C@]43C)[C@@H]12,CC50 at 36 h,[1],324 µM
same,IC50,Influenza A virus [2],8.36 µM
same,selectivity ratio,[3],38.8
same,Activity,MDCK,Non-Toxic
CCN(CC)c1ccc2c(-c3ccccc3C(=O)O)c3ccc(=[N+](CC)CC)cc-3oc2c1 [RHODAMINE],Activity,Influenza A virus [4],inactive
same,IC50,Influenza A virus [2],> 100 µM
C[C@H]1[C@H](C)CC[C@]2(C(=O)O)CC[C@]3(C)C(=CC[C@@H]4[C@@]5(C)CC[C@H](O)C(C)(C)[C@@H]5CC[C@]43C)[C@@H]12,Activity,Influenza A virus [5],31%
same,Kd,[6],7.1 10^-2/s
same,Kd,[7],41 µM
same,Ka,[8],1.73 10^3/M.s
CCN(CC)c1ccc2c(c1)Oc1cc(N(CC)CC)ccc1C21c2ccccc2C(=O)N1CCNC(=O)[C@]12CCC(C)(C)C[C@@H]1C1=CC[C@@H]3[C@@]4(C)CC[C@H](O)C(C)(C)[C@@H]4CC[C@@]3(C)[C@]1(C)CC2,Activity,Influenza A virus [5],>90%
same,IC50,Influenza A virus [2],14.3 µM
same,Activity,MDCK,Non-Toxic
CC1(C)CC[C@]2(C(=O)O)CC[C@]3(C)C(=CC[C@@H]4[C@@]5(C)CC[C@H](O)C(C)(C)[C@@H]5CC[C@]43C)[C@H]2C1,Activity,Influenza A virus [5],17%
CCN(CC)c1ccc2c(c1)Oc1cc(N(CC)CC)ccc1C21c2ccccc2C(=O)N1CCNC(=O)[C@]12CCC(C)(C)C[C@@H]1C1=CC[C@@H]3[C@@]4(C)CC[C@H](O)C(C)(C)[C@@H]4CC[C@@]3(C)[C@]1(C)C[C@H]2O,Activity,Influenza A virus [5],>90%
same,IC50,Influenza A virus [2],13.3 µM
same,Activity,MDCK,Non-Toxic
CCN(CC)c1ccc2c(c1)Oc1cc(N(CC)CC)ccc1C21c2ccccc2C(=O)N1CCNC(=O)[C@]12CC[C@@H](C)[C@H](C)[C@@H]1C1=CC[C@@H]3[C@@]4(C)CC[C@H](O)C(C)(C)[C@@H]4CC[C@@]3(C)[C@]1(C)CC2,CC50 at 36 h,[1],368 µM
same,Activity,Influenza A virus [9],inactive
same,Activity,Influenza A virus [5],>90%
same,Activity,Influenza A virus [5]; A/WSN/1933(H1N1),Active
same,Activity,Influenza A virus [10],95%
same,Drug uptake,[11],52.4%
same,inhibition,Erythrocyte,Active
same,IC50,Influenza A virus [2],8.24 µM
same,Kd,[6],4.14 10^-2/s
same,Drug uptake,[12],62.6%
same,Kd,[7],17.8 µM
same,selectivity ratio,[3],44.7
same,Activity,Influenza A virus [13],91%
same,Stabilty,[14],Stable
same,Activity,Influenza A virus [15],25%
same,Activity,Influenza A virus [16],inactive
same,Activity,Influenza A virus [17],15%
same,Ka,[8],2.33 10^3/M.s
same,Drug uptake,[18],97.5%
same,Drug uptake,[19],Active
same,Activity,MDCK,Non-Toxic
same,Drug uptake,[20],Active
